Test results taken from patent publication US10364245B2 (CHIESI FARMACEUTICI S.p.A., priority 2017, dated 2019).
Structures can show the parent of a compound that is named as a salt.

Legend:
p38 alpha = biological target: T1, p38 alpha (Homo sapiens, UniProt Q16539); experiment: P38 alpha enzyme inhibition assay (Alphascreen kinase activity assay); type: biochemical; conditions: 100 pM p38 alpha, 2 hours preincubation at 25° C., 250 μM ATP, ATF-2 fusion protein; read-out: p38α inhibition
T1 construct: purchased Invitrogen PV3304
T1 sequence (Q16539 whole entry, the tested form may be a part): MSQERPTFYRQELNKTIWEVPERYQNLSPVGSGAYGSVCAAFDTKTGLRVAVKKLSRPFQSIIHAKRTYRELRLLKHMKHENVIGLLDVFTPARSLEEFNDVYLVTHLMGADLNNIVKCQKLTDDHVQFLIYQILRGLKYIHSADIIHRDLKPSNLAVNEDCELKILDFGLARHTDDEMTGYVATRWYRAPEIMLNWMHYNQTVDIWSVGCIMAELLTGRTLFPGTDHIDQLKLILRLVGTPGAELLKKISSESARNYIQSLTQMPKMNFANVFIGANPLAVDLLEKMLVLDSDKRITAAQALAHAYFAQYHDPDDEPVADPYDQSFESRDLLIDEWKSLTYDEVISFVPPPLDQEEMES
Outline: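 100 pM p38 alpha preincubated 2 h at 25 °C with compound and 0.3 μg/ml ATF-2 fusion substrate (HEPES pH 7.5, MgCl2, 1% DMSO). Reaction started with 250 μM ATP, run 1 h at 25 °C, stopped with EDTA; phospho-ATF2 detected by AlphaScreen luminescence. IC50 from concentration-response curves.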

[1] = test system: Peripheral Blood Mononuclear Cells (PBMCs), TNFα release; experiment: LPS-stimulated PBMC TNFα release assay; type: cell-based; conditions: human PBMC, LPS (10 ng/ml), 18 h, compound 1 h before LPS; read-out: LPS-stimulated PBMC TNFα release inhibition
Protocol: LPS-Stimulated PBMC TNFα Release Assay
Peripheral Blood Mononuclear Cells (PBMCs) were isolated from healthy human volunteer blood using a standard density gradient centrifugation technique. Citrated blood was placed onto Histopaque™ and centrifuged. The PBMCs were removed from the density gradient interface and washed in phosphate buffered saline (PBS). The PBMCs were suspended in RPMI 1640 medium (without serum), dispensed into a 96-well plate and incubated at 37° C. for 3 h in a humidified incubator. After incubation, the medium was replaced (with medium containing 1% foetal bovine serum) and the plate incubated at 37° C., for 1 h, in the presence of test compound or the appropriate vehicle. LPS (10 ng/ml), or an appropriate vehicle control, was then added to the cells and the plate returned to the incubator for 18 h. Cell-free supernatants were removed and assayed for TNFα levels using MSD plates on the Sector Imager 6000 (MesoScale).
A dose response curve to each test compound was performed and the effect of compound in each experiment was expressed as a percentage inhibition of the control TNFα release. Dose response curves were plotted and compound potency (IC50) was determined. Compounds were tested in at least three separate experiments.

SMILES	IC50 (p38 alpha) [nM]	IC50 [1] [nM]
CN1CCC[C@H]1C(=O)NCc1nc(NC(=O)N[C@H]2CC[C@@H](Oc3ccc4nnc(C(C)(C)C)n4c3)c3ccccc32)cc(C(C)(C)C)n1 [Example 110, (S)-N-((4-(tert-butyl)-6-(3-((1S,4R)-4-((3-(tert-butyl)-[1,2,4]triazolo[4,3-a]pyridin-6-yl)oxy)-1,2,3,4-tetrahydronaphthalen-1-yl)ureido)pyrimidin-2-yl)methyl)-1-methylpyrrolidine-2-carboxamide]	1 to 10	1 to 5
CCC(C)(C)c1nnc2ccc(O[C@@H]3CC[C@H](NC(=O)Nc4cc(C(=O)NCCN(C)C)nc(C(C)(C)C)c4)c4ccccc43)cn12 [Example 206, 6-(tert-butyl)-N-(2-(dimethylamino)ethyl)-4-(3-((1S,4R)-4-((3-(tert-pentyl)-[1,2,4]triazolo[4,3-a]pyridin-6-yl)oxy)-1,2,3,4-tetrahydronaphthalen-1-yl)ureido)picolinamide]	< 1	1 to 5
CN(CCO)CCNC(=O)c1nc(NC(=O)N[C@H]2CC[C@@H](Oc3ccc4nnc(C5(C)CCCC5)n4c3)c3ccccc32)cc(C(C)(C)C)n1 [Example 181, 4-(tert-butyl)-N-(2-((2-hydroxyethyl)(methyl)amino)ethyl)-6-(3-((1S,4R)-4-((3-(1-methylcyclopentyl)-[1,2,4]triazolo[4,3-a]pyridin-6-yl)oxy)-1,2,3,4-tetrahydronaphthalen-1-yl)ureido)pyrimidine-2-carboxamide]	< 1	1 to 5
CN(C)CC(C)(C)NC(=O)c1nc(NC(=O)N[C@H]2CC[C@@H](Oc3ccc4nnc(C(C)(C)C)n4c3)c3ccccc32)cc(C(C)(C)C)n1 [Example 112, 4-(tert-butyl)-6-(3-((1S,4R)-4-((3-(tert-butyl)-[1,2,4]triazolo[4,3-a]pyridin-6-yl)oxy)-1,2,3,4-tetrahydronaphthalen-1-yl)ureido)-N-(1-(dimethylamino)-2-methylpropan-2-yl)pyrimidine-2-carboxamide]	1 to 10	1 to 5
CN(C)CC(=O)NCc1nc(NC(=O)N[C@H]2CC[C@@H](Oc3ccc4nnc(C(C)(C)C)n4c3)c3ccccc32)cc(C(C)(C)C)n1 [Example 24, N-((4-(tert-Butyl)-6-(3-((1S,4R)-4-((3-(tert-butyl)-[1,2,4]triazolo[4,3-a]pyridin-6-yl)oxy)-1,2,3,4-tetrahydronaphthalen-1-yl)ureido)pyrimidin-2-yl)methyl)-2-(dimethylamino)acetamide]	< 1	> 5
CN1CCN(C(C)(C)c2nnc3ccc(O[C@@H]4CC[C@H](NC(=O)Nc5cc(CO)nc(C(C)(C)C)c5)c5ccccc54)cn23)CC1 [Example 198, 1-(2-(tert-butyl)-6-(hydroxymethyl)pyridin-4-yl)-3-((1S,4R)-4-((3-(2-(4-methylpiperazin-1-yl)propan-2-yl)-[1,2,4]triazolo[4,3-a]pyridin-6-yl)oxy)-1,2,3,4-tetrahydronaphthalen-1-yl)urea]	< 1	> 5
COCCN(C)CCNC(=O)c1nc(NC(=O)N[C@H]2CC[C@@H](Oc3ccc4nnc(C(C)(C)C)n4c3)c3ccccc32)cc(C(C)(C)C)n1 [Example 67, 4-(tert-butyl)-6-(3-((1S,4R)-4-((3-(tert-butyl)-[1,2,4]triazolo[4,3-a]pyridin-6-yl)oxy)-1,2,3,4-tetrahydronaphthalen-1-yl)ureido)-N-(2-((2-methoxyethyl)(methyl)amino)ethyl)pyrimidine-2-carboxamide]	1 to 10	1 to 5
CN(C)CCNC(=O)c1nc(NC(=O)N[C@H]2CC[C@@H](Oc3ccc4nnc([C@]5(C)CCCN5C)n4c3)c3ccccc32)cc(C(C)(C)C)n1 [Example 28, 4-(tert-Butyl)-N-(2-(dimethylamino)ethyl)-6-(3-((1S,4R)-4-((3-((S)-1,2-dimethylpyrrolidin-2-yl)-[1,2,4]triazolo[4,3-a]pyridin-6-yl)oxy)-1,2,3,4-tetrahydronaphthalen-1-yl)ureido)pyrimidine-2-carboxamide]	< 1	1 to 5
CC(C)N1CCC[C@H]1c1nnc2ccc(O[C@@H]3CC[C@H](NC(=O)Nc4cc(C(C)(C)C)ncn4)c4ccccc43)cn12 [Example 47, 1-(6-(tert-Butyl)pyrimidin-4-yl)-3-((1S,4R)-4-((3-((S)-1-isopropylpyrrolidin-2-yl)-[1,2,4]triazolo[4,3-a]pyridine-6-yl)oxy)-1,2,3,4-tetrahydronaphthalene-1-yl)urea Hydrochloride]	< 1	> 5
CCC(CC)c1nnc2ccc(O[C@@H]3CC[C@H](NC(=O)Nc4cc(C(C)(C)C)nc(C(=O)NCC(C)(C)N5CCN(C)CC5)n4)c4ccccc43)cn12 [Example 173, 4-(tert-butyl)-N-(2-methyl-2-(4-methylpiperazin-1-yl)propyl)-6-(3-((1S,4R)-4-((3-(pentan-3-yl)-[1,2,4]triazolo[4,3-a]pyridin-6-yl)oxy)-1,2,3,4-tetrahydronaphthalen-1-yl)ureido)pyrimidine-2-carboxamide formate salt]	< 1	1 to 5
CN1CCC[C@@]1(C)c1nnc2ccc(O[C@@H]3CC[C@H](NC(=O)Nc4cc(NS(C)(=O)=O)nc(C(C)(C)C)c4)c4ccccc43)cn12 [Example 212, N-(6-(tert-Butyl)-4-(3-((1S,4R)-4-((3-((S)-1,2-dimethylpyrrolidin-2-yl)-[1,2,4]triazolo[4,3-a]pyridin-6-yl)oxy)-1,2,3,4-tetrahydronaphthalen-1-yl)ureido)pyridin-2-yl)methanesulfonamide]	< 1	1 to 5
CN(C)CCNC(=O)c1nc(NC(=O)N[C@H]2CC[C@@H](Oc3ccc4nnc([C@@H]5COCCN5C)n4c3)c3ccccc32)cc(C(C)(C)C)n1 [Example 214, 4-(tert-Butyl)-N-(2-(dimethylamino)ethyl)-6-(3-((1S,4R)-4-((3-((R)-4-methylmorpholin-3-yl)-[1,2,4]triazolo[4,3-a]pyridin-6-yl)oxy)-1,2,3,4-tetrahydronaphthalen-1-yl)ureido)pyrimidine-2-carboxamide]	1 to 10	> 5
CCN(CC)c1nnc2ccc(O[C@@H]3CC[C@H](NC(=O)Nc4cc(C(=O)NCC(C)(C)N(C)C)nc(C(C)(C)C)c4)c4ccccc43)cn12 [Example 204, 6-(tert-Butyl)-4-(3-((1S,4R)-4-((3-(diethylamino)-[1,2,4]triazolo[4,3-a]pyridin-6-yl)oxy)-1,2,3,4-tetrahydronaphthalen-1-yl)ureido)-N-(2-(dimethylamino)-2-methylpropyl)-picolinamide formate salt]	< 1	1 to 5
CC(C)(C)Cc1nnc2ccc(O[C@@H]3CC[C@H](NC(=O)Nc4cc(C(C)(C)C)nc(C(=O)NCCN5CCOCC5)n4)c4ccccc43)cn12 [Example 99, 4-(tert-butyl)-N-(2-morpholinoethyl)-6-(3-((1S,4R)-4-((3-neopentyl-[1,2,4]triazolo[4,3-a]pyridin-6-yl)oxy)-1,2,3,4-tetrahydronaphthalen-1-yl)ureido)pyrimidine-2-carboxamide]	1 to 10	> 5
COC(C)(C)c1nnc2ccc(O[C@@H]3CC[C@H](NC(=O)Nc4cc(COCCN5CCOCC5)nc(C(C)(C)C)c4)c4ccccc43)cn12 [Example 57]	1 to 10	> 5
CCC(CC)c1nnc2ccc(O[C@@H]3CC[C@H](NC(=O)Nc4cc(C(C)(C)C)nc(C(=O)NCC(C)(C)N5CC(OC)C5)n4)c4ccccc43)cn12 [Example 174, 4-(tert-butyl)-N-(2-(3-methoxyazetidin-1-yl)-2-methylpropyl)-6-(3-((1S,4R)-4-((3-(pentan-3-yl)-[1,2,4]triazolo[4,3-a]pyridin-6-yl)oxy)-1,2,3,4-tetrahydronaphthalen-1-yl)ureido)pyrimidine-2-carboxamide formate salt]	< 1	1 to 5
CC[C@H](C)c1nnc2ccc(O[C@@H]3CC[C@H](NC(=O)Nc4cc(C(C)(C)C)nc(C(=O)NCCN(C)CC)n4)c4ccccc43)cn12 [Example 146, 4-(tert-butyl)-6-(3-((1S,4R)-4-((3-((S)-sec-butyl)-[1,2,4]triazolo[4,3-a]pyridin-6-yl)oxy)-1,2,3,4-tetrahydronaphthalen-1-yl)ureido)-N-(2-(ethyl(methyl)amino)-ethyl)pyrimidine-2-carboxamide]	< 1	1 to 5
CN(C)CCNC(=O)c1nc(NC(=O)N[C@H]2CC[C@@H](Oc3ccc4nnc(C5(C)CC5)n4c3)c3ccccc32)cc(C(C)(C)C)n1 [Example 32, 4-(tert-Butyl)-N-(2-(dimethylamino)ethyl)-6-(3-((1S,4R)-4-((3-(1-methylcyclopropyl)-[1,2,4]triazolo[4,3-a]pyridin-6-yl)oxy)-1,2,3,4-tetrahydronaphthalen-1-yl)ureido)pyrimidine-2-carboxamide]	< 1	> 5
